Target: T1, Recombinant human LTC4 synthase (Homo sapiens, UniProt Q16873)
T1 construct: made in house; host or cells: Pichia pastoris ('Piccia pastoralis' [sic])
T1 sequence (Q16873 1-150): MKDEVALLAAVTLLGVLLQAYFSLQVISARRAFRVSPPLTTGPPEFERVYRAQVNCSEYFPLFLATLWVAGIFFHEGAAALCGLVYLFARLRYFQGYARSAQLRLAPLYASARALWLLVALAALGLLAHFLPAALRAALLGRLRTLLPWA
Test: LTC4 synthase assay (conversion of LTA4 methyl ester to LTC4 methyl ester, HPLC)
Format: biochemical
Details: inhibitor concentration 0.3 μM; read-out: Percantage Inhibition (at a concentration of 0.3 μM)
Protocol: In the assay LTC4 synthase catalyses the reaction where the substrate LTA4 methyl ester is converted to LTC4 methyl ester. Recombinant human LTC4 synthase is expressed in Piccia pastoralis and the purified enzyme is dissolved in 25 mM Tris-buffer pH 7.8 and stored at −20° C. The assay is performed in phosphate buffered saline (PBS) pH 7.4, supplemented with 5 mM glutathione (GSH). The reaction is terminated by addition of acetonitrile/MeOH/acetic acid (50/50/1). The assay is performed at rt in 96-well plates. Analysis of the formed LTC4 methyl ester is performed with reversed phase HPLC (Waters 2795 utilizing an Onyx Monolithic C18 column). The mobile phase consists of acetonitrile/MeOH/H2O (32.5/30/37.5) with 1% acetic acid pH adjusted with NH3 to pH 5.6, and absorbance measured at 280 nm with a Waters 2487 UV-detector.
The following is added chronologically to each well: • 1. 50 μl assay buffer, PBS with 5 mM GSH. • 2. 0.5 μl inhibitor in DMSO. • 3. 2 μl LTC4 synthase in PBS. The total protein concentration in this solution is 0.025 mg/ml. Incubation of the plate at room temperature for 10 minutes. • 4. 0.5 μl LTA4 methyl ester. Incubation of the plate at rt for 1 min. • 5. 50 μl stop solution. 80 μl of the incubation mixture is analysed with HPLC.

Row | inhibition at 0.3 µM [%] | Compound
1 | 92 | CCCCc1ccc(C(=O)Nc2ccc(C(=O)c3ccc(NC(=O)c4ccc(C(F)(F)F)cc4)c(C(=O)O)c3)cc2C(=O)O)cc1 [Example 9, 2-(4-butylbenzamido)-5-(4-(4-(trifluoromethyl)benzamido)-3-carboxyphenylcarbonyl)-benzoic acid]

Same assay, conditions: inhibitor concentration 10 μM

Row | Compound | Percantage Inhibition at 10 μM (unless specified otherwise) [%]
2 | CCCCOc1ccc(S(=O)(=O)Nc2ccc(C(=O)c3ccc(NS(=O)(=O)c4ccc(OCCCC)cc4)c(C(=O)O)c3)cc2C(=O)O)cc1 [Example 7] | 97
3 | O=C(c1ccc(Oc2ccc(Cl)cc2)c(C(=O)O)c1)c1ccc(Oc2ccc(Cl)cc2)c(C(=O)O)c1 [11:3, 5-{3-Carboxy-[4-(chlorophenoxy)]-benzoyl}-2-(4-chlorophenoxy)-benzoic acid] | 97

Same assay, conditions: inhibitor concentration 10 μM; read-out: Percantage Inhibition at 10 μM (unless specified otherwise)

Row | inhibition at 10 µM [%] | Compound
4 | 98 | O=C(c1ccc(Nc2cccc(Cl)c2)cc1)c1ccc(Oc2ccc(F)c(F)c2)c(C(=O)O)c1 [8:2, 5-[4-(3-Chloro-phenylamino)-benzoyl]-2-(3,4-difluoro-phenoxy)-benzoic acid]
5 | 82 | O=C(Nc1ccc(C(=O)c2ccc(NC(=O)c3cccc(Cl)c3O)c(C(=O)O)c2)cc1)c1cccc(Cl)c1 [7:7, 5-[4-(3-Chloro-benzoylamino)-benzoyl]-2-(3-chloro-2-hydroxy-benzoylamino)-benzoic acid]
6 | 100 | CCCCCCC(=O)Nc1ccc(C(=O)c2ccc(NC(=O)c3ccc(Cl)cc3Cl)c(C(=O)O)c2)cc1 [14:2, 2-(2,4-Dichloro-benzoylamino)-5-(4-heptanoylamino-benzoyl)-benzoic acid]
7 | 66 | CN(c1ccc(Cl)cc1)c1ccc(C(=O)c2ccc(Oc3cccc(Cl)c3Cl)c(C(=O)O)c2)cc1 [6:9, 5-{4-[(4-Chloro-phenyl)-methyl-amino]-benzoyl}-2-(2,3-dichloro-phenoxy)-benzoic acid]
8 | 99 | O=C(c1ccc(NS(=O)(=O)c2ccc(Cl)cc2)cc1)c1ccc(NC(=O)c2cccc(Cl)c2Cl)c(C(=O)O)c1 [7:10, 5-[4-(4-Chloro-benzenesulfonylamino)-benzoyl]-2-(2,3-dichloro-benzoylamino)-benzoic acid]
9 | 100 | O=C(Nc1ccc(C(=O)c2ccc(NS(=O)(=O)c3ccc(Cl)cc3)c(C(=O)O)c2)cc1)c1cccc(Cl)c1 [7:2, 2-(4-Chloro-benzenesulfonylamino)-5-[4-(3-chloro-benzoylamino)-benzoyl]-benzoic acid]
10 | 90 | CN(c1ccc(Cl)cc1)c1ccc(C(=O)c2ccc(Oc3ccc(F)c(F)c3)c(C(=O)O)c2)cc1 [6:3, 5-{4-[(4-Chloro-phenyl)-methyl-amino]-benzoyl}-2-(3,4-difluoro-phenoxy)-benzoic acid]
11 | 96 | COc1ccc(Cl)cc1S(=O)(=O)Nc1ccc(C(=O)c2ccc(NC(=O)c3cccc(Cl)c3)cc2)cc1C(=O)O [7:3, 5-[4-(3-Chloro-benzoylamino)-benzoyl]-2-(5-chloro-2-methoxy-benzenesulfonylamino)-benzoic acid]
12 | 98 | CN(c1ccc(Cl)cc1)c1ccc(C(=O)c2ccc(Oc3ccccc3OC(F)(F)C(F)F)c(C(=O)O)c2)cc1 [6:8, 5-{4-[(4-Chloro-phenyl)-methyl-amino]-benzoyl}-2-[2-(1,1,2,2-tetrafluoro-ethoxy)-phenoxy]-benzoic acid]
13 | 98 | O=C(c1ccc(NS(=O)(=O)c2ccc(Cl)c(Cl)c2)c(C(=O)O)c1)c1ccc(NS(=O)(=O)c2ccc(Cl)c(Cl)c2)c(C(=O)O)c1 [Example 5, 2-((3,4-dichlorophenyl)sulfonyl-amino)-5-(3-carboxy-4-(((3,4-dichlorophenyl)sulfonyl)amino)-benzoyl)benzoic acid]
14 | 96 | O=C(c1ccc(Oc2ccc(C(F)(F)F)cc2)cc1)c1ccc(Oc2ccc(F)c(F)c2)c(C(=O)O)c1 [8:5, 2-(3,4-Difluoro-phenoxy)-5-[4-(4-trifluoromethyl-phenoxy)-benzoyl]-benzoic acid]
15 | 88 | O=C(Nc1ccc(C(=O)c2ccc(Oc3ccc(F)c(F)c3)c(C(=O)O)c2)cc1)c1cccc(Cl)c1 [8:4, 5-[4-(3-Chloro-benzoylamino)-benzoyl]-2-(3,4-difluoro-phenoxy)-benzoic acid]
16 | 93 | O=C(c1ccc(Nc2ccc(F)c(F)c2)c(C(=O)O)c1)c1ccc(Nc2ccc(F)c(F)c2)c(C(=O)O)c1 [Example 1, 2-(3,4-difluorophenylamino)-5-((4-(3,4-difluorophenylamino)-3-carboxyphenylcarbonyl))benzoic acid]
17 | 82 | O=C(c1ccc(NC(=O)c2ccc(Cl)cc2Cl)c(C(=O)O)c1)c1ccc(NC(=O)c2ccc(Cl)cc2Cl)c(C(=O)O)c1 [Example 10, 2-(2,4-dichlorobenzamido)-5-(4-(2,4-dichlorobenzamido)-3-carboxyphenylcarbonyl)-benzoic acid]
18 | 90 | O=C(c1ccc(Nc2ccc(Cl)nc2)cc1)c1ccc(Nc2ccc(F)c(F)c2)c(C(=O)O)c1 [5:7, 5-[4-(6-Chloro-pyridin-3-ylamino)-benzoyl]-2-(3,4-difluoro-phenylamino)-benzoic acid]
19 | 98 | O=C(Nc1ccc(C(=O)c2ccc(NS(=O)(=O)c3ccc(Cl)cc3)cc2)cc1C(=O)O)c1cccc(Cl)c1 [7:11, 5-[4-(4-Chloro-benzenesulfonylamino)-benzoyl]-2-(3-chloro-benzoylamino)-benzoic acid]
20 | 95 | O=C(Nc1ccc(C(=O)c2ccc(Nc3ccc(F)c(F)c3)c(C(=O)O)c2)cc1)Nc1cccc(Cl)c1 [5:1, 5-{4-[3-(3-Chloro-phenyl)-ureido]-benzoyl}-2-(3,4-difluoro-phenylamino)-benzoic acid]
21 | 90 | CN(c1ccc(Cl)cc1)c1ccc(C(=O)c2ccc(Nc3cccc(C(F)(F)F)c3)c(C(=O)O)c2)cc1 [9:1, 5-{4-[(4-Chloro-phenyl)-methyl-amino]-benzoyl}-2-(3-trifluoromethyl-phenylamino)-benzoic acid]
22 | 96 | CN(c1ccc(Cl)cc1)c1ccc(C(=O)c2ccc(Oc3cccc(C(F)(F)F)c3F)c(C(=O)O)c2)cc1 [6:7, 5-{4-[(4-Chloro-phenyl)-methyl-amino]-benzoyl}-2-(2-fluoro-3-trifluoromethyl-phenoxy)-benzoic acid]
23 | 97 | CN(c1ccc(Cl)cc1)c1ccc(C(=O)c2ccc(Oc3cccc4c3CCCC4)c(-c3nnn[nH]3)c2)cc1 [10:1, {4-[(4-Chloro-phenyl)-methyl-amino]-phenyl}-[4-(5,6,7,8-tetrahydro-naphthalen-1-yloxy)-3-(1H-tetrazol-5-yl)-phenyl]-methanone]
24 | 55 | CN(c1ccc(Cl)cc1)c1ccc(C(=O)c2ccc(Nc3ccccc3C(F)(F)F)c(C(=O)O)c2)cc1 [9:2, 5-{4-[(4-Chloro-phenyl)-methyl-amino]-benzoyl}-2-(2-trifluoromethyl-phenylamino)-benzoic acid]
25 | 100 | O=C(c1ccc(Nc2ccc(Cl)cc2)cc1)c1ccc(Oc2ccc(F)c(F)c2)c(C(=O)O)c1 [8:3, 5-[4-(4-Chloro-phenylamino)-benzoyl]-2-(3,4-difluoro-phenoxy)-benzoic acid]
26 | 100 | O=C(Nc1ccc(C(=O)c2ccc(NC(=O)c3cccc4ccsc34)c(C(=O)O)c2)cc1)c1cccc(Cl)c1 [7:5, 2-[(Benzo[b]thiophene-7-carbonyl)-amino]-5-[4-(3-chloro-benzoylamino)-benzoyl]-benzoic acid]
27 | 98 | O=C(c1ccc(NC(=O)c2cc(Cl)ccc2Cl)cc1)c1ccc(Nc2ccc(F)c(F)c2)c(C(=O)O)c1 [5:10, 5-[4-(2,5-Dichloro-benzoylamino)-benzoyl]-2-(3,4-difluoro-phenylamino)-benzoic acid]
28 | 87 | O=C(Nc1ccc(C(=O)c2ccc(Nc3ccc(F)c(F)c3)c(C(=O)O)c2)cc1)c1cccc(Cl)c1 [5:11, 5-[4-(3-Chloro-benzoylamino)-benzoyl]-2-(3,4-difluoro-phenylamino)-benzoic acid]
29 | 100 | O=C(Nc1ccc(C(=O)c2ccc(NC(=O)c3ccc(Cl)cc3Cl)c(C(=O)O)c2)cc1C(=O)O)c1ccc(OC(F)(F)F)cc1 [Example 11, 2-(4-(trifluoromethoxy)benzamido)-5-(4-(2,4-dichloro-benzamido)-3-carboxyphenyl-carbonyl)benzoic acid]

Row | Compound | inhibition at 10 µM [%]
30 | CCCCOc1ccc(S(=O)(=O)Nc2ccc(C(=O)c3ccc(NC(=O)c4cccc(Cl)c4Cl)c(C(=O)O)c3)cc2C(=O)O)cc1 [Example 12, 5-[(3-Carboxy-4-(4-n-butoxy-benzenesulfonylamino)benzoyl)]-2-(2,3-dichlorobenzoylamino)benzoic acid] | 98
31 | CCCCOc1ccc(S(=O)(=O)Nc2ccc(C(=O)c3ccc(Nc4ccc(F)c(F)c4)c(C(=O)O)c3)cc2)cc1 [Example 14, 5-(4-(4-butoxyphenylsulfonamido)benzoyl)-2-(3,4-difluorophenylamino)benzoic acid] | 100
